# Measurements as given in patent US20230346792A1, “COMPOSITIONS AND METHODS FOR TREATING LUNG INFLAMMATION” (Hoth Therapeutics, Inc., priority 2020, published 2023).
# Columns and labels:
# [1] = system: nociception induced by capsaicin (TRPV1) or AITC (TRPA1); settings: capsaicin (via TRPV1) or AITC (via TRPA1), rat peritoneum; cited from earlier work
# Covid-19 patients = experiment: Randomized double-blind placebo-controlled clinical study of aprepitant injectable emulsion in Covid-19 positive patients; type: in vivo, human; settings: aprepitant injectable emulsion (e.g., Cinvanti) daily (QD), 14 days, comparator saline placebo, including severe to critical patients
# From the text: One group of patients receives saline placebo daily for a desirable period of time (e.g., 14 days) with normal management and care, and the other group of patients receives aprepitant injectable emulsion (e.g., Cinvanti®) daily (QD) during the same period of time (e.g., 14 days).
# NK1R = molecular target: T1, NK1R (Rattus norvegicus, UniProt P14600); settings: asthma model; cited from earlier work
# T1 construct: host or cells: living animal of an asthma model (endogenous receptor)
# T1 sequence (P14600 whole entry): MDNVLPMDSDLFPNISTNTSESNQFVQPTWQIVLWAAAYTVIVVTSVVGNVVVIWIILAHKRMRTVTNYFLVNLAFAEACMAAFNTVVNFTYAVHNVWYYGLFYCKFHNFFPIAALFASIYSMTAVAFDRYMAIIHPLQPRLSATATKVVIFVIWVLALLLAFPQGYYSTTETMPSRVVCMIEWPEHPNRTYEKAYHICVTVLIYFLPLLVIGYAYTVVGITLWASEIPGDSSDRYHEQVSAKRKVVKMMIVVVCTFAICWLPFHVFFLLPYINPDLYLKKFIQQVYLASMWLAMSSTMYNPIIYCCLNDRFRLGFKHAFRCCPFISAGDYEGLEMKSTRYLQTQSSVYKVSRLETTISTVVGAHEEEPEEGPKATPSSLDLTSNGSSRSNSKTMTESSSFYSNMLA
# [2] = system: NSCLC squamous cell carcinoma; settings: one patient with history of COPD and NSCLC squamous cell carcinoma; aprepitant combined with radiotherapy; cited from earlier work
# Neurokinin-1 receptor = molecular target: T2, Neurokinin-1 receptor (Homo sapiens, UniProt P25103); settings: lung cancer; cited from earlier work
# T2 construct: host or cells: treated subjects (endogenous receptor)
# T2 sequence (P25103 whole entry): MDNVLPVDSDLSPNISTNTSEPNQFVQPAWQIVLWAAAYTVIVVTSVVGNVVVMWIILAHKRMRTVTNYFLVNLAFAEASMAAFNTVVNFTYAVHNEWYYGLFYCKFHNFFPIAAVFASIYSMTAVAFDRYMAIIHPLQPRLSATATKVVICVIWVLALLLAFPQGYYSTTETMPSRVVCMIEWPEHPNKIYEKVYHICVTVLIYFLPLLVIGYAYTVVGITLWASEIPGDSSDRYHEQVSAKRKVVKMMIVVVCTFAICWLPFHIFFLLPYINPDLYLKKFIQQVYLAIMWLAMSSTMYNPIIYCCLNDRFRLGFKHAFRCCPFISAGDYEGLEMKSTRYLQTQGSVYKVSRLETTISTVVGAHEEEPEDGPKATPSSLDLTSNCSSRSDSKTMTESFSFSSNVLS
# [3] = in vivo; cited from earlier work
SMILES,nociception induced by capsaicin or AITC [1],effectiveness in treating Covid-19 patients versus placebo (Covid-19 patients),lung inflammation and inflammatory cytokines (NK1R),treatment outcome of lung cancer patient [2],cough frequency (Neurokinin-1 receptor),adverse effects of chronic treatment [3]
C[C@@H](O[C@H]1OCCN(Cc2nc(=O)[nH][nH]2)[C@H]1c1ccc(F)cc1)c1cc(C(F)(F)F)cc(C(F)(F)F)c1 [aprepitant],able to reduce nociception,more effective in treating Covid-19 patients,reduced lung inflammation and inflammatory cytokines,successfully treated,reduction in cough frequency,–
C#Cc1cccc(Nc2ncnc3cc(OCCOC)c(OCCOC)cc23)c1 [erlotinib],–,–,–,–,–,"induces hypomagnesemia, thereby triggering SP-mediated oxidative/inflammation stress and mild-to-moderate cardiac dysfunction"
C=C(C)[C@]12C[C@@H](C)[C@@]34O[C@](Cc5ccccc5)(O[C@@H]1[C@@H]3C=C(COC(=O)Cc1ccc(O)c(OC)c1)C[C@]1(O)C(=O)C(C)=C[C@@H]41)O2 [resiniferatoxin],able to reduce nociception,–,–,–,–,–
